According to patent EP0255299A2, “Glycopeptide antibiotics” (SMITHKLINE BECKMAN CORPORATION, priority 1986, dated 1988):
Values after ≈ are worked out from the molar mass of the structure shown. Like-named read-outs stand apart in the source and are kept apart here.

Experiments:
[1] = tested on: S. faecalis (strain 9, Table 2); test: mouse protection assay, i.p. infection with S. faecalis, single s.c. dose; type: in vivo; conditions: mice infected with 3.17 LD50's, dosed once subcutaneously one hour after infection
Method: (§1) The in vivo activity of the CWI-785 complex and its components and hydrolysis products was confirmed by administering selected CWI-785 antibiotics to mice infected with various gram-positive pathogens. In one representative assay, in which mice infected intraperitoneally with 46.8 LD ₅₀ʹs of S. aureus (strain 1, Tables 1 and 2) were dosed once, subcutaneously one hour after infection, the following ED₅₀ʹs (mg/kg) (the ED₅₀ gives the amount of antibiotic necessary for 50% survival) were observed: CWI-785B: 2.4, CWI-785C: 3.1, CWI-785: 3.8, HPB3: 0.9, vancomycin: 0.7. In a second representative assay carried out as above except that mice were infected with 3.17 LD₅₀ʹs of S. faecalis (strain 9, Table 2), the following ED₅₀ʹs were observed: HPB3 hydrochloride: 1.6, HPB4 hydrochloride: 1.6, vancomycin: 2.2, teicoplanin: 1.3.

physchem = type: physicochemical
Description: The invention includes within its scope pharmaceutical compositions containing at least one of the above-mentioned antibiotic compounds and a pharmaceutically acceptable carrier. The compositions may also contain other active antibacterial agents. The compositions may be made up in any pharmaceutical form appropriate for the route of administration in question. Such compositions are exemplified by solid compositions for oral administration, such as tablets, capsules, pills, powders and granules; liquid compositions for oral administration such as solutions, suspensions, syrups and elixirs; preparations for parenteral administration such as sterile solutions, suspensions or emulsions; and preparations for topical administration such as gels, creams, ointments or salves. […] In 40% prophylene glycol in water (V/V), the solubility of HPB4 free base is greater than about 200 mg/ml. […] The solubility of HPB4·K is about 300 mg/ml. The solubility of HPB4·2HCl is about 600 mg/ml.
The solubility of the potassium salt is about 300 mg/ml in water.

pH of aqueous solution = type: physicochemical; conditions: 100 mg/ml aqueous solution
[2] = tested on: S. aureus (strain 1, Tables 1 and 2); test: mouse protection assay, i.p. infection with S. aureus, single s.c. dose; type: in vivo; conditions: mice infected intraperitoneally with 46.8 LD50's, dosed once subcutaneously one hour after infection, 50% survival
Method: as §1

Which ED₅₀ [1] does the source give for `CNC(C(=O)NC1C(=O)NC(CC[S+](C)[O-])C(=O)NC2C(=O)NC3C(=O)NC(C(=O)NC(C(=O)O)c4cc(O)cc(O)c4-c4cc3ccc4O)C(OC3CC(N)C(O)C(C)O3)c3ccc(c(Cl)c3)Oc3cc2cc(c3O)Oc2ccc(cc2)C1O)c1ccc(O)cc1.Cl` (centres unmarked) [HPB3 hydrochloride] here?
The ED₅₀ was 1.6 mg/kg.

Which solubility (physchem; solubility) does the source give for `CNC(C(=O)NC1C(=O)NC(CCSC)C(=O)NC2C(=O)NC3C(=O)NC(C(=O)NC(C(=O)O)c4cc(O)cc(O)c4-c4cc3ccc4O)C(O[C@H]3C[C@@H](N)[C@@H](O)[C@H](C)O3)c3ccc(c(Cl)c3)Oc3cc2cc(c3O)Oc2ccc(cc2)C1O)c1ccc(O)cc1` (some centres unmarked) [HPB4·K] here?
The solubility was about 300 mg/mL (≈ 232 mM).

And the solubility (physchem; water, solubility)?
Its solubility is about 300 mg/mL (≈ 232 mM).

What about the pH (pH of aqueous solution) of the same compound?
The pH was 9.29.

For `CNC(C(=O)NC1C(=O)NC(CCSC)C(=O)NC2C(=O)NC3C(=O)NC(C(=O)NC(C(=O)O)c4cc(O)cc(O)c4-c4cc3ccc4O)C(O[C@H]3C[C@@H](N)[C@@H](O)[C@H](C)O3)c3ccc(c(Cl)c3)Oc3cc2cc(c3O)Oc2ccc(cc2)C1O)c1ccc(O)cc1` (some centres unmarked) [HPB4·2HCl], which solubility (physchem) is on record?
Its solubility is “about 600 mg/ml”.

With `CNC(C(=O)NC1C(=O)NC(CC[S+](C)[O-])C(=O)NC2C(=O)NC3C(=O)NC(C(=O)NC(C(=O)O)c4cc(O)cc(O)c4-c4cc3ccc4O)C(OC3CC(N)C(O)C(C)O3)c3ccc(c(Cl)c3)Oc3cc2cc(c3O)Oc2ccc(cc2)C1O)c1ccc(O)cc1` (centres unmarked) [HPB3] as the compound, how does the ED₅₀ [2] read?
The ED₅₀ was 0.9 mg/kg.

With `CNC(C(=O)NC1C(=O)NC(CCSC)C(=O)NC2C(=O)NC3C(=O)NC(C(=O)NC(C(=O)O)c4cc(O)cc(O)c4-c4cc3ccc4O)C(OC3CC(N)C(O)C(C)O3)c3ccc(c(Cl)c3)Oc3cc2cc(c3O)Oc2ccc(cc2)C1O)c1ccc(O)cc1.Cl` (centres unmarked) [HPB4 hydrochloride] as the compound, how does the ED₅₀ [1] read?
The ED₅₀ was 1.6 mg/kg.

For `CN[C@H](CC(C)C)C(=O)N[C@H]1C(=O)N[C@@H](CC(N)=O)C(=O)N[C@H]2C(=O)N[C@H]3C(=O)N[C@H](C(=O)N[C@H](C(=O)O)c4cc(O)cc(O)c4-c4cc3ccc4O)[C@H](O)c3ccc(c(Cl)c3)Oc3cc2cc(c3O[C@@H]2O[C@H](CO)[C@@H](O)[C@H](O)[C@H]2O[C@H]2C[C@](C)(N)[C@H](O)[C@H](C)O2)Oc2ccc(cc2Cl)[C@H]1O` [vancomycin, reference compound], which ED50 ([2]; Staphylococcus aureus, sc, 1 h, read-out: ED₅₀) is on record?
The ED50 was 0.7 mg/kg.

What about the ED50 ([1]; Enterococcus faecalis, sc, 1 h, read-out: ED₅₀) of the same compound?
The ED50 was 2.2 mg/kg.

Which results are given for `CNC(C(=O)NC1C(=O)NC(CCSC)C(=O)NC2C(=O)NC3C(=O)NC(C(=O)NC(C(=O)O)c4cc(O)cc(O)c4-c4cc3ccc4O)C(O[C@H]3C[C@@H](N)[C@@H](O)[C@H](C)O3)c3ccc(c(Cl)c3)Oc3cc2cc(c3O)Oc2ccc(cc2)C1O)c1ccc(O)cc1` (some centres unmarked) [HPB4]?
solubility (physchem; 40% peg-400 in water, organic solvent or mixture, solubility): ~250 mg/mL (≈ 194 mM); solubility (physchem; 40% propylene glycol in water, organic solvent or mixture, solubility): > 200 mg/mL
